Measurements published in patent US4638088A, “Pesticidal biphenylyloxy and biphenylylalkoxy aryl acyl urea compounds” (Union Carbide Corporation, priority 1984, dated 1987).
Values after ≈ are worked out from the molar mass of the structure shown. Read-outs that look alike come from different tables or passages of the source.

Tests used:
[1] = tested on: Heliothis zea; experiment: Tobacco Budworm and Cotton Bollworm Leaf Spray Bait Test (cotton bollworm); format: in vivo; conditions: Helicoverpa zea, 120 h, read-out: LC50 values, Heliothis Zea
Protocol: (§1) Suspension of the test compounds were prepared by dissolving one gram of compound in 50 milliliters of acetone in which had been dissolved 0.1 gram (10 percent of the weight of compound) of an alkylphenoxy polyethoxyethanol surfactant, as an emulsifying or dispersing agent. The resulting solution was mixed into 150 milliliters of water to give roughly 200 milliliters of a suspension containing the compound in finely divided form. The thus-prepared stock suspension contained 0.5 percent by weight of compound. The test concentrations in parts per million by weight employed in the tests described hereinbelow were obtained by appropriate dilutions of the stock suspension with water. Certain of the test compounds were also prepared by dissolving 375 mg of compound in 7.5 ml of dimethylformamide. Fifteen milliliters of acetone containing 37.5 mg (10 percent of the weight of test compound) of an alkylphenoxy polyethoxyethanol surfactant, as a wetting/emulsifying/dispersing agent was added to the dimethylformamide solution. Fifty-two and one-half milliliters of water wasa mixed into the dimethylformamide-acetone mixture to give roughly 75 ml of a suspension containing the compound in solution or in finely divided form. The thus prepared stock suspension contained 0.5 percent by weight of compound. The test procedures were as follows:
(§2) Second instar larvae of the tobacco budworm (weighing about 4.5 mg) (Heliothis virescens, F.) and the cotton bollworm (weighing about 2.5 mg) (Heliothis zea, (Boddie)), obtained commercially and reared on artificial diet at a temperature of 80°±5° F. and a relative humidity of 50±5 percent, constituted the test insects.
(§3) Using a procedure similar to the above, but substituting cotton plants for snapbeans, treated and dried cotton leaves were introduced into 9 cm Petri dishes which were organized into groups of 10-dish sets. One randomly selected larvae was introduced into each dish of a ten dish set and the dishes were closed. The closed dishes were labelled and held at 80°±5° F. for five days. Larvae which were unable to move the length of the body, even upon stimulation, were considered dead. Percent mortality was recorded for various concentration levels. LC50 or concentration required to kill 50 percent of the larvae was determined from the mortality figures.

[2] = tested on: Heliothis virescens; experiment: Tobacco Budworm and Cotton Bollworm Leaf Spray Bait Test (tobacco budworm); format: in vivo; conditions: 120 h, read-out: LC50 values, Heliothis Virescens
Protocol: as §1, §2, §3

[3] = tested on: southern armyworm; experiment: Southern Armyworm Leaf Spray Bait Test; format: in vivo; conditions: Spodoptera eridania, 120 h, read-out: Activity at 500 ppm, SAW, 500 ppm; Southern Armyworm larvae; up to five days
Protocol: as §1
Larvae of the southern armyworm (Spodoptera eridania, (Cram.), reared on Tendergreen bean plants at a temperature of 80°±5° F. and a relative humidity of 50±5 percent, constituted the test insects.
Potted Tendergreen bean plants of standarad height and age were placed on a revolving turntable and sprayed with 100-110 milliliters of test compound formulation by use of a DeVilbiss spray gun set at 40 psig air pressure. This application, which lasted 25 seconds, was sufficient to wet plants to run-off. As a control, 100-110 milliliters of a water-acetone-emulsifier solution containing no test compound was also sprayed on infested plants. When dry, the paired leaves were separated and each one was placed in a 9 centimeter Petri dish lined with moistened filter paper. Five randomly selected larvae were introduced into each dish and the dishes were closed. The closed dishes were labeled and held at 80°-85° F. for up to five days. Although the larvae could easily consume the whole leaf within twenty-four hours, no more food was added. Larvae which were unable to move the length of the body, even upon stimulation by prodding, were considered dead. Percent mortality was recorded for various concentration levels.

[4] = tested on: Mexican bean beetle; experiment: Mexican Bean Beetle Leaf Spray Test; format: in vivo, Epilachna varivestic; conditions: Epilachna varivestis, 120 h, Mexican Bean Beetle larvae, five days, read-out: Activity at 500 ppm, MBB
Protocol: as §1
Fourth instar larvae of the Mexican bean beetle (Epilachna varivestic, Muls.), reared on Tendergreen bean plants at a temperature of 80°±5° F. and 50±5 percent relative humidity, were the test insects. For certain of the tests second instar larvae (weighting about 6 mg) of the Mexican bean beetle (Epilachna varaivestis, Muls.), reared on Sieva Pole lime bean plants at a temperature of 80°±5° F. and 50±5 percent relative humidity, were the test insects.
The test compounds were formulated by diluting the stock suspension with water to give a suspension containing 500 parts of test compound per million parts of final formulation. Potted Tendergreen bean plants of standard height and age were placed on a revolving turntable and sprayed with 100-110 milliliters of test compound formulation by use of a DeVilbiss spray gun set at 40 psig air pressure. This application, which lasted 25 seconds, was sufficient to wet plants to run-off. As a control, 100-110 milliliters of a water-acetone-emulsifier solution containing no test compound was also sprayed on infested plants. When dry, the paired leaves were separated and each was placed in a 9 centimeter Petri dish lined with moistened filter paper. Five randomly selected larvae were introduced into each dish, and the dishes were closed. The closed dishes were labeled and held at a temperature of 80°±5° F., for five days. Although the larvae could easily consume the leaf within 24 to 48 hours, no more food was added. Larvae which were unable to move the length of the body, even upon stimulation, were considered dead. Percent mortality was recorded for various concentration levels.

[5] = tested on: two-spotted mite; experiment: Mite Larvacidal Test Method; format: in vivo; conditions: Tetranychus urticae, 144 h, two-spotted mite larvae, five to six days, read-out: Mortality Rating at 500 ppm, Larvae
Protocol: Then the larvae are transferred to bean plants 6-8 inches in height. A sufficient number of larvae for testing (50-100) were transferred from TEPP treated leaves to the fresh plants in 24 hours.
Infested Tendergreen bean plants are placed on a revolving turntable. Test compounds are formulated with DMF, acetone, and a 3 to 1 mixture of Triton 172 and 152 (alkylphenoxy polyethoxyethanol surfactant mixture), respectively and then diluted in water to appropriate concentrations of chemical for application to the infested plants by use of a DeVilbiss spray gun with air pressure set at 40 pounds. The volume of 100 milliliters is sufficient to wet the plants to run off. A blank formulation is used for the control.
The treated plants are held at 80°±5° F. and 50±5 percent relative humidity for a period of five to six days, when mortality counts of the larvae are made.

[6] = Heliothis Zea, second instar larvae, five days

SMILES | LC50 [2] | LC50 [1, 6] | mortality at 500 ppm [3] | mortality at 500 ppm [4] | other results
O=C(NC(=O)c1c(F)cccc1F)Nc1ccc(Cl)cc1 [Comparative Example A, reference compound] | 31 µg/mL (≈ 99.8 µM) |  |  |  | LC50 [1]: 500 µg/mL (≈ 1610 µM)
Cc1ccc(Oc2ccc(NC(=O)NC(=O)c3c(F)cccc3F)cc2Cl)c(C)c1 [Comparative Example J, reference compound] | > 100 µg/mL | > 100 µg/mL |  |  | 
O=C(NC(=O)c1c(F)cccc1F)Nc1cc(Cl)c(Oc2cccc3ccccc23)c(Cl)c1 [Comparative Example K, reference compound] | 500 µg/mL (≈ 1030 µM) | 30 µg/mL (≈ 61.6 µM) |  |  | 
Cc1cc(Oc2ccccc2-c2ccccc2)c(Cl)cc1NC(=O)NC(=O)c1ccccc1C(F)(F)F [Example 27] |  |  | 0 to 30% | 0 to 30% | 
O=C(NC(=O)c1c(F)cccc1F)Nc1cc(Cl)c(OCc2ccccc2-c2ccccc2)c(Cl)c1 [Example 28] |  |  | 71 to 100% | 71 to 100% | 
O=C(NC(=S)Nc1cc(Cl)c(OCc2ccccc2-c2ccccc2)c(Cl)c1)c1ccccc1Cl [Example 29] |  |  | 71 to 100% | 71 to 100% | 
O=C(NC(=O)c1c(F)cccc1F)Nc1cc(Cl)c(Oc2ccccc2-c2ccccc2)c(Cl)c1 [Example 31] |  |  | 71 to 100% | 71 to 100% | 
O=C(NC(=O)c1ccccc1Cl)Nc1cc(Cl)c(Oc2ccccc2-c2ccccc2)c(Cl)c1 [Example 32] |  |  | 71 to 100% | 71 to 100% | 
Cc1cc(NC(=O)NC(=O)c2c(F)cccc2F)c(C)c(Cl)c1Oc1ccccc1-c1ccccc1 [Example 36] | 9 µg/mL (≈ 17.8 µM) | 2.2 µg/mL (≈ 4.34 µM) |  |  | 
Cc1cc(NC(=O)NC(=O)c2ccccc2Cl)c(C)c(Cl)c1Oc1ccccc1-c1ccccc1 [Example 37] | 4 µg/mL (≈ 7.91 µM) | 1.7 µg/mL (≈ 3.36 µM) |  |  | 
Cc1cc(NC(=O)NC(=O)c2c(F)cccc2F)c(C)c(Cl)c1Oc1ccc(Cl)cc1-c1ccccc1 [Example 38] | 1.9 µg/mL (≈ 3.51 µM) | 1.6 µg/mL (≈ 2.96 µM) |  |  | 
O=C(NC(=O)c1c(F)cccc1F)Nc1cc(Cl)c(OCc2ccccc2-c2ccccc2)c(Cl)c1 [Example 39] | 16 µg/mL (≈ 30.3 µM) | 5 µg/mL (≈ 9.48 µM) |  |  | 
Cc1cc(NC(=O)NC(=O)c2c(F)cccc2Cl)c(C)c(Cl)c1Oc1ccccc1-c1ccccc1 [Example 40] |  |  |  |  | mortality at 500 ppm [5]: 71 to 100%
